Experiments:
ΔF508-CFTR [1] = target: T1, ΔF508-CFTR (Homo sapiens, UniProt P13569, DEL508-508); test: CFTR cell surface levels using HRP-tagged ΔF508-CFTR expressing CFBE cells, in the presence of a co-corrector; assay type: cell-based
T1 construct: host or cells: CFBE41o-, doxycycline-inducible
Outline: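 Cells were seeded with 0.5 μg/mL doxycycline and held 68 h at 37 °C. Test compounds plus 3 μM co-corrector (final 0.1% DMSO) were then added for 20 h at 33 °C. Washed cells received HRP substrate, and luminescence was normalized between DMSO and 3 μM co-corrector controls.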

ΔF508-CFTR [2] = target: T1, ΔF508-CFTR; test: CFTR cell surface levels using HRP-tagged ΔF508-CFTR expressing CFBE cells, intrinsic corrector capacity; assay type: cell-based
Outline: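 Here the cells express ΔF508-CFTR with horseradish peroxidase inserted in extracellular loop 4, so only rescued channel at the surface gives luminescent signal. Compounds act on their own, 20 h at the reduced temperature of 33 °C; values are percent activity relative to DMSO and a 3 μM corrector.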

[3] = HRP-tagged ΔF508-CFTR expressing CFBE cells, in the presence of 3 μM co-corrector
[4] = HRP-tagged ΔF508-CFTR expressing CFBE cells, in the presence of 3 μM co-corrector, read-out: EC50
[5] = HRP-tagged ΔF508-CFTR CFBE41o- cells, compounds alone (intrinsic corrector capacity), 20 hours at 33° C., positive control 3 μM corrector
[6] = HRP-tagged ΔF508-CFTR CFBE41o- cells, compounds alone (intrinsic corrector capacity), 20 hours at 33° C., read-out: EC50
[7] = HRP-tagged ΔF508-CFTR expressing CFBE cells, intrinsic corrector capacity (no co-corrector), 33° C., 20 hours
[8] = HRP-tagged ΔF508-CFTR expressing CFBE cells, intrinsic corrector capacity (no co-corrector), 33° C., 20 hours, read-out: EC50

T1 sequence (P13569 with tags, fused parts or gaps DEL508-508): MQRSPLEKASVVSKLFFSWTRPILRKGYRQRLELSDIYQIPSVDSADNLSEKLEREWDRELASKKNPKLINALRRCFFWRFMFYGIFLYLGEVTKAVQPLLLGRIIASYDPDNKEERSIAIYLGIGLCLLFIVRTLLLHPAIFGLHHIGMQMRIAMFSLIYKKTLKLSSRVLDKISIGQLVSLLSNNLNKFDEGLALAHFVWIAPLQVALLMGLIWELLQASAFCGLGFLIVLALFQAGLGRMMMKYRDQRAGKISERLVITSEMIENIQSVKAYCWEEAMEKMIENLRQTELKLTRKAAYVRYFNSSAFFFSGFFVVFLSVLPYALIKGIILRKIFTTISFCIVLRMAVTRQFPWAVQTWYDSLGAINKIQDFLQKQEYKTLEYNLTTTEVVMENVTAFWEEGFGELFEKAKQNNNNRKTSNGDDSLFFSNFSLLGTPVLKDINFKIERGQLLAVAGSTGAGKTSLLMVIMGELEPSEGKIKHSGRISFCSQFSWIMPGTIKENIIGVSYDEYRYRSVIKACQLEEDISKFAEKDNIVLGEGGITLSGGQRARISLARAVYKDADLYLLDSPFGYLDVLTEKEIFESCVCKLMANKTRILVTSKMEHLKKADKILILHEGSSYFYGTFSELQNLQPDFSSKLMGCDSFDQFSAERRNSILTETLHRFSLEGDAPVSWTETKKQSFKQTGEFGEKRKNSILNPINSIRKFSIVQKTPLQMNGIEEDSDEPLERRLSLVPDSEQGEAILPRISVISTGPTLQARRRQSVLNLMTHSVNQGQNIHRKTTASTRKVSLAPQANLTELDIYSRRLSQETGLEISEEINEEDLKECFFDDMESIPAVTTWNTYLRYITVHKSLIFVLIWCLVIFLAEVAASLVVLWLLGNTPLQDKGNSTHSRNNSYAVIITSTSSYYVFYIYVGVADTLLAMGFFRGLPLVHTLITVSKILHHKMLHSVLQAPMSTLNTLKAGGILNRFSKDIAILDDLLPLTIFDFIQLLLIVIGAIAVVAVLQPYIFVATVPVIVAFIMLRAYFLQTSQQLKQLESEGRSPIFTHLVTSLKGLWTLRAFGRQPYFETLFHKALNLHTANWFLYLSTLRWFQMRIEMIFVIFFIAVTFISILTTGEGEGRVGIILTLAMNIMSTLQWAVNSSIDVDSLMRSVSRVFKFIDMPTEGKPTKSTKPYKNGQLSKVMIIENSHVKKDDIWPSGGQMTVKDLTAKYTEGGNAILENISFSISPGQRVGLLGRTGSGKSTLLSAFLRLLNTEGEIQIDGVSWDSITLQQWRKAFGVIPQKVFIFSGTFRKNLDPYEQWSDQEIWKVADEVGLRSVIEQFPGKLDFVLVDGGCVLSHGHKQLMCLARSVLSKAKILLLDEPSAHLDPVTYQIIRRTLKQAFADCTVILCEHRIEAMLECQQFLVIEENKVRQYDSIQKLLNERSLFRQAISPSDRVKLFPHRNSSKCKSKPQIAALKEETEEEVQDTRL

SMILES	% Activation (ΔF508-CFTR [1]; [3]) [%]	EC50 (ΔF508-CFTR [1]; [4]) [µM]	% Activation (ΔF508-CFTR [2]; [5]) [%]	EC50 (ΔF508-CFTR [2]; [6]) [µM]	EC50 (ΔF508-CFTR [1]) [µM]	EC50 (ΔF508-CFTR [2]) [µM]	% Activation (ΔF508-CFTR [2]; [7]) [%]	EC50 (ΔF508-CFTR [2]; [8]) [µM]
CC(C)c1nn(C2CCCCC2)c2nc(C(=O)O)cc(-c3cnc(N(C)C4CCN(C(=O)OC(C)(C)C)CC4)nc3)c12 [compound 374, 4-(2-{[1-(tert-butoxycarbonyl)piperidin-4-yl](methyl)amino}pyrimidin-5-yl)-1-cyclohexyl-3-(propan-2-yl)-1H-pyrazolo[3,4-b]pyridine-6-carboxylic acid]	297.35	0.464	114.2	0.595				
CC(C)c1nn(-c2ccc(F)cc2)c2nc(C(=O)O)cc(N3CCC(CN4CCCC4)CC3)c12 [compound 811, 1-(4-fluorophenyl)-3-(propan-2-yl)-4-{4-[(pyrrolidin-1-yl)methyl]piperidin-1-yl}-1H-pyrazolo[3,4-b]pyridine-6-carboxylic acid]	408.4				1.08	0.89	120.4	
CC(C)c1nn(C2CCCCC2)c2nc(C(=O)O)cc(-c3ccc(N4CCCC(F)C4)nc3)c12 (centres unmarked) [compound 223, 1-cyclohexyl-4-[6-(3-fluoropiperidin-1-yl)pyridin-3-yl]-3-(propan-2-yl)-1H-pyrazolo[3,4-b]pyridine-6-carboxylic acid]	484.45	0.687	246.95	0.714				
COC(C)(C)C1CCN(c2cc(C(=O)O)nc3c2c(C(C)C)nn3-c2ccc(F)cc2)CC1 [compound 438, 1-(4-fluorophenyl)-4-[4-(2-methoxypropan-2-yl)piperidin-1-yl]-3-(propan-2-yl)-1H-pyrazolo[3,4-b]pyridine-6-carboxylic acid]	507.27	0.387					277.03	0.331
O=C(O)c1cc(N2CCOC(C(F)(F)F)C2)c2c(C3CCC3)nn(-c3ccccc3)c2n1 (centres unmarked) [compound 596, 3-cyclobutyl-1-phenyl-4-[2-(trifluoromethyl)morpholin-4-yl]-1H-pyrazolo[3,4-b]pyridine-6-carboxylic acid]	299.4	0.522					99.54	0.735
O=C(O)c1cc(OC2CCCCCCC2)c2c(C3CCC3)nn(-c3ccccc3)c2n1 [compound 649, 3-cyclobutyl-4-(cyclooctyloxy)-1-phenyl-1H-pyrazolo[3,4-b]pyridine-6-carboxylic acid]	314.65	0.225					107.6	0.432
Cc1nn(-c2ccccc2)c2nc(C(=O)O)cc(-c3ccc(N4CCC(F)(F)C4)cc3)c12 [compound 111, 4-[4-(3,3-difluoropyrrolidin-1-yl)phenyl]-3-methyl-1-phenyl-1H-pyrazolo[3,4-b]pyridine-6-carboxylic acid]	299.8	0.424	110.34	0.459				
CC1(COc2cc(C(=O)O)nc3c2c(C2CCC2)nn3-c2ccccc2)COC1 [compound 490, 3-cyclobutyl-4-[(3-methyloxetan-3-yl)methoxy]-1-phenyl-1H-pyrazolo[3,4-b]pyridine-6-carboxylic acid]	311.1	0.296					144.95	0.4
COCCN(C)c1ccc(-c2cc(C(=O)O)nc3c2c(C(C)C)nn3-c2cccc(N3CCCC3)c2)cc1 [compound 238, 4-{4-[(2-methoxyethyl)(methyl)amino]phenyl}-3-(propan-2-yl)-1-[3-(pyrrolidin-1-yl)phenyl]-1H-pyrazolo[3,4-b]pyridine-6-carboxylic acid]	613.4	0.54	393.7	0.827				
CCC1(COc2cc(C(=O)O)nc3c2c(C2CCC2)nn3-c2ccccc2)COC1 [compound 581, 3-cyclobutyl-4-[(3-ethyloxetan-3-yl)methoxy]-1-phenyl-1H-pyrazolo[3,4-b]pyridine-6-carboxylic acid]	377.8	0.203					146	0.25
Cc1nn(-c2ccccc2)c2nc(C(=O)O)cc(N3CCC(O)CC3)c12 [compound 137, 4-(4-hydroxypiperidin-1-yl)-3-methyl-1-phenyl-1H-pyrazolo[3,4-b]pyridine-6-carboxylic acid]	158.05	3.34	27.985	> 10				
CCCN1CCCN(c2cc(C(=O)O)nc3c2c(C(C)C)nn3-c2ccc(F)cc2)CC1 [compound 766, 1-(4-fluorophenyl)-3-(propan-2-yl)-4-(4-propyl-1,4-diazepan-1-yl)-1H-pyrazolo[3,4-b]pyridine-6-carboxylic acid]	213.4	1.18					54.3	1.67
O=C(O)c1cc(N2CCC(CN3CCCCC3)CC2)c2c(C3CCC3)nn(-c3ccccc3)c2n1 [compound 686, 3-cyclobutyl-1-phenyl-4-{4-[(piperidin-1-yl)methyl]piperidin-1-yl}-1H-pyrazolo[3,4-b]pyridine-6-carboxylic acid]	431.1	0.237					240.4	1.67
O=C(O)c1cc(N2CCC(COCc3ccccc3)CC2)c2c(C3CCC3)nn(-c3ccccc3)c2n1 [compound 427, 4-{4-[(benzyloxy)methyl]piperidin-1-yl}-3-cyclobutyl-1-phenyl-1H-pyrazolo[3,4-b]pyridine-6-carboxylic acid]	418.9	0.577					200.4	0.663
O=C(O)c1cc(OCCN2CCNC2=O)c2c(C3CCC3)nn(-c3ccccc3)c2n1 [compound 640, 3-cyclobutyl-4-[2-(2-oxoimidazolidin-1-yl)ethoxy]-1-phenyl-1H-pyrazolo[3,4-b]pyridine-6-carboxylic acid]	137.45	> 10					13.97	> 10
CN1C(=O)CO[C@H]2CN(c3cc(C(=O)O)nc4c3c(C3CCC3)nn4-c3ccccc3)C[C@@H]21 [compound 516, 3-cyclobutyl-4-[(4aS,7aS)-4-methyl-3-oxohexahydropyrrolo[3,4-b][1,4]oxazin-6 (2H)-yl]-1-phenyl-1H-pyrazolo[3,4-b]pyridine-6-carboxylic acid]	275.5	0.723					123.4	1.11
O=C(O)c1cc(N2CCC(N3CCOCC3)CC2)c2c(C3CCC3)nn(-c3ccnc(OCc4ccccc4)c3)c2n1 [compound 856, 1-[2-(benzyloxy)pyridin-4-yl]-3-cyclobutyl-4-[4-(morpholin-4-yl)piperidin-1-yl]-1H-pyrazolo[3,4-b]pyridine-6-carboxylic acid]	416.9	0.0883					230.7	0.248
N#CC1CCN(c2ccc(-c3cc(C(=O)O)nc4c3c(C3CCC3)nn4C3CCCCC3)cc2)CC1 [compound 219, 4-[4-(4-cyanopiperidin-1-yl)phenyl]-3-cyclobutyl-1-cyclohexyl-1H-pyrazolo[3,4-b]pyridine-6-carboxylic acid]	474.5	0.365	248.7	0.518				
CO[C@@H]1CCC[C@@H](n2nc(C(C)C)c3c(-c4ccc(N5CCOCC5)cc4)cc(C(=O)O)nc32)C1 [compound 214, 1-[(1R,3R)-3-methoxycyclohexyl]-4-[4-(morpholin-4-yl)phenyl]-3-(propan-2-yl)-1H-pyrazolo[3,4-b]pyridine-6-carboxylic acid]	323	0.609	154	0.82				
O=C(O)c1cc(N2CCC3(CC2)CC(N2CCCC2)CO3)c2c(C3CCC3)nn(-c3ccc(F)cc3)c2n1 (centres unmarked) [compound 862, 3-cyclobutyl-1-(4-fluorophenyl)-4-[3-(pyrrolidin-1-yl)-1-oxa-8-azaspiro[4.5]decan-8-yl]-1H-pyrazolo[3,4-b]pyridine-6-carboxylic acid]	359.6	0.636					186.5	0.637
CC(C)c1nn(-c2ccc(F)cc2)c2nc(C(=O)O)cc(N3CCN(CCO)CC3)c12 [compound 773, 1-(4-fluorophenyl)-4-[4-(2-hydroxyethyl)piperazin-1-yl]-3-(propan-2-yl)-1H-pyrazolo[3,4-b]pyridine-6-carboxylic acid]	141.8	5					16.13	5
O=C(O)c1cc(N2CCC3(CCNC3=O)C2)c2c(C3CCC3)nn(-c3ccccc3)c2n1 (centres unmarked) [compound 537, 3-cyclobutyl-4-(6-oxo-2,7-diazaspiro[4.4]nonan-2-yl)-1-phenyl-1H-pyrazolo[3,4-b]pyridine-6-carboxylic acid]	191.2	3.33					45.36	3.33
Cc1nn(C)cc1-c1cc(C(=O)O)nc2c1c(C(C)C)nn2C1CCCCC1 [compound 352, 1-cyclohexyl-4-(1,3-dimethyl-1H-pyrazol-4-yl)-3-(propan-2-yl)-1H-pyrazolo[3,4-b]pyridine-6-carboxylic acid]	210.15	1.43	55.175	1.51				

From US9796711B2, “Substituted pyrazolo[3,4-b]pyridin-6-carboxylic acids and method of use” (AbbVie S.àr.l., priority 2015, dated 2017)
